Results reported in ChEMBL document CHEMBL4765416, “Design, synthesis, and evaluation of pyrrolidine based CXCR4 antagonists with in vivo anti-tumor metastatic activity” (Eur J Med Chem, 2020).

What was measured:
[1] = biological target: T1, C-X-C chemokine receptor type 4 (Homo sapiens, UniProt P61073); test: Inhibition of APC-conjugated anti-human CXCR4 clone 12G5 binding to CXCR4 in human HPBALL cells measured after 3 hrs by FACS analysis; format: cell-based
[2] = Intrinsic clearance in rat liver microsomes at 1 uM peincubated for 10 mins followed by NADPH addition and measured 60 mins by LC-MS/MS analysis; format: ADME, Microsome; conditions: time 70 min, read-out: CLH
[3] = Half life in rat liver microsomes at 1 uM peincubated for 10 mins followed by NADPH addition and measured 60 mins by LC-MS/MS analysis; format: ADME, Microsome; conditions: time 70 min
[4] = biological target: T1, C-X-C chemokine receptor type 4; test: Antagonist activity at CXCR4 in human CD4-positive T cells assessed as inhibition of CXCL12-induced cytosolic calcium flux preincubated for 20 mins followed by CXCL12 addition by calcium 4 dye based FLIPR TETRA analysis; format: functional, cell-based, T cell

T1 sequence (P61073 whole entry): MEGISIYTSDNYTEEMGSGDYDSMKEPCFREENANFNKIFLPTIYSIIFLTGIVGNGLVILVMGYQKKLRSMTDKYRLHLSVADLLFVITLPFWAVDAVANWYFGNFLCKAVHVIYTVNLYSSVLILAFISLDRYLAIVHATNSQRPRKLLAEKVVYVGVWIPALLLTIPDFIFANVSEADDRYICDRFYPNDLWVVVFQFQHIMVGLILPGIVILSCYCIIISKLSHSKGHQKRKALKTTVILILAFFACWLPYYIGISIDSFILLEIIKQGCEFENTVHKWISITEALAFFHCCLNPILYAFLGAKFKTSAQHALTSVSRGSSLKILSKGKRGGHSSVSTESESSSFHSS

Row | SMILES | IC50 [1] | CLint scaled at 1 µM [2] | half-life at 1 µM [3] | IC50 [4]
1 | Cc1nc(CN(C)C2CCCc3cccnc32)c(F)c(N2CCN(C)CC2)n1 (stereo not given) |  | 1080 mL/min/kg | 2.31 min | 
2 | CN1CCN(c2cc(CN(C)C3CCCc4cccnc43)nc(C3CC3)n2)CC1 (stereo not given) |  | 2440 mL/min/kg | 1.02 min | 
3 | Cc1nc(CN(C)[C@H]2CCCc3cccnc32)cc(N2CCN3CCC[C@H]3C2)n1 |  | > 497 mL/min/kg | < 1 min | 
4 | Cc1nc(CN(C)[C@H]2CCCc3cccnc32)cc(N2C[C@@H](C)N(C)[C@@H](C)C2)n1 |  | > 497 mL/min/kg | < 1 min | 
5 | Cc1nc(CN2CCC[C@H]2c2ncccc2C)cc(N2CCCN(C)CC2)n1 |  |  |  | 0.4 nM
6 | CN1CCN(c2cc(CN(C)C3CCCc4cccnc43)nc(N)n2)CC1 (stereo not given) |  | 767 mL/min/kg | 3.24 min | 
7 | Cc1nc(CN(C)[C@H]2CCCc3cccnc32)cc(N2CCN(C)[C@H](C)C2)n1 |  | > 497 mL/min/kg | < 1 min | 
8 | CN1CCN(c2cccc3nc(CN(C)[C@H]4CCCc5cccnc54)c(CO)n23)CC1 |  | 651 mL/min/kg | 3.82 min | 

Next, values leading:

Row | IC50 [1] | CLint scaled at 1 µM [2] | half-life at 1 µM [3] | IC50 [4] | SMILES
9 | 620 nM |  |  |  | Cc1nc(CN2CCCCC2c2ccccn2)cc(N2CCN(C)CC2)n1 (stereo not given)
10 | 319 nM |  |  |  | Cc1nc(CN2CCCC2c2ccccn2)cc(N2CCN(C)CC2)n1 (stereo not given)
11 | 1550 nM |  |  |  | Cc1nc(CN2CCC(C)C2c2ccccn2)cc(N2CCN(C)CC2)n1 (stereo not given)
12 | 216 nM |  |  |  | Cc1ccnc([C@@H]2CCCN2Cc2cc(N3CCN(C)CC3)nc(C)n2)c1
13 | 2390 nM |  |  |  | Cc1cccc([C@@H]2CCCN2Cc2cc(N3CCN(C)CC3)nc(C)n2)n1
